Here are results for three molecules from US5821232A, “Synergistic therapeutic compositions and methods” (Pfizer Inc., priority 1995, dated 1998).

Assay [1] relates to Male Hartley guinea pigs. Description: Mean arterial pressure lowering in conscious sodium-depleted guinea pigs, i.v. dosing. Format: in vivo, guinea pig. On the set-up: unit not given beside the values. Particulars: trapezoidal method. The protocol:
Male Hartley guinea pigs weighing between 250 and 300 g were obtained from Charles River Laboratories, Lakeview, New Jersey. The guinea pigs were allowed to acclimate to their environment for at least two weeks. Then, they were placed on a low sodium diet (Purina Modified Guinea Pig Chow, no sodium added) for 14 days and were given injections of furosemide (Lasix® 2 mg/kg, i.m.) on three non-consecutive days. At least 24 hours prior to experimentation, the animals were anesthetized with xylazine (Rompune, 10 mg/kg, s.c.) and ketamine (Vetalar®, 80 mg/kg, i.m.) and, using aseptic technique, cannulae (PE-50) were implanted into the aorta via the right carotid artery for direct measurement of mean arterial pressure (MAP). Cannulae (PE-50) were also placed into the left jugular vein for intravenous compound administration. Both catheters were exteriorized at the intrascapular region of the animal's back and flushed with a heparinized dextrose solution. To prevent the formation of clots, each cannula was filled with heparin at a concentration of 1000 units/ml. After surgery, an antibacterial, trimethoprim/sulfamethoxazole (Di-Trim®, 30 mg/kg, s.c.), was given to the animals. The animals were allowed to recover with water and no-sodium chow administered ad libitum. On the day of the experiment, each guinea pig was given an additional injection of furosemide (6 mg/kg, i.m.) to accelerate sodium loss and was placed in a sound-proof, ventilated box with one-way glass for observation. Mean arterial pressure was monitored with a Statham 23DB strain gauge pressure transducer previously calibrated using a mercury manometer. The arterial pressure waveform and derived heart rate were continuously recorded on a Grass Model 7D oscillograph. Arterial pressure waveform samples were obtained approximately every 20 seconds using an IBM PS/2 model 30 computer equipped with a custom algorithm designed to calculate mean arterial pressure from the integrated waveform. Values were obtained for a period of at least one hour prior to and 2 hours (usually 4 hours) after dosing. The test compounds were infused intravenously followed by a 250 μl flush with heparinized dextrose solution.
Dose response curves for the renin inhibitor (RI) (0.3 to 3.0 mg/kg, i.v.) and captopril (0.03 to 1.0 mg/kg, i.v.) were obtained (n =4 to 8) in order to quantitate baseline responses to each drug. In experiments where the renin inhibitor and captopril were co-administered, the renin inhibitor was given first immediately followed by captopril. Doses of renin inhibitor and angiotensin converting enzyme inhibitor, when given together, were chosen on the basis of causing submaximal hypotensive effects. Therefore, the contributory effect of each drug could be quantitated by integration and compared to the expected effect to determine whether additive or synergistic responses had occurred.
Employing the procedure described above, the changes in mean arterial pressure (AMAP) for the renin inhibitor (RI), the ACE inhibitor (captopril) and the renin inhibitor (RI), plus the ACE inhibitor (captopril) were obtained for various doses and are shown in Table I, below. The AOC-MAP is the area over the dose response curve for each dose calculated using the trapezoidal method.
The data in Table I were obtained by averaging the A MAP of all animals for each dose prior to calculating the AOC-MAP. When the data contained in Table I was reviewed for the purpose of calculating the AOC-MAP by averaging the area over the dose response curve for each animal per dose, it was discovered that the AOC-MAP for 0.5 mg/kg RI plus 0.05 mg/kg captopril inadvertently reflected the data based on only three of the six subject test animals. Shown below in Table II are the AOC-MAP data for the experiments reported in Table I, which data is now the result of determining the area over the dose response curve for each animal per dose and averaging the AOC-MAP, as well as determining the standard deviation. […]

The conditions of assay [2]: Oldham et al., J. Cardiovasc. Pharmacol. 6: 672-677 (1984); cited from earlier work.
[3] abbreviates: Table III, 0.3 mg/kg i.v., average of area per animal.
The mark [4] stands for this setting: Table III, 1.0 mg/kg i.v., average of area per animal.
The mark [5] stands for this setting: Table I, 0.3 mg/kg i.v., area over curve from MAP change averaged over all animals per dose.
Where [6] appears, read: Table I, 1.0 mg/kg i.v., area over curve from MAP change averaged over all animals per dose.
Setting [7] is: Table II, 0.3 mg/kg i.v., average of area per animal (± standard deviation).
[8] abbreviates: Table II, 1.0 mg/kg i.v., average of area per animal (± standard deviation).

As for `CCCCc1nc(Cl)c(CO)n1Cc1ccc(-c2ccccc2-c2nn[nH]n2)cc1` [Dup 753], the AOC-MAP is on record as -125 (±31) in assay [1] (setting [3]); -549 (±96) in assay [1] (setting [4]); -1575 (±281) in assay [1] (Table III, 3.0 mg/kg i.v., average of area per animal).

Take `C[C@H](CS)C(=O)N1CCC[C@H]1C(=O)O` [captopril]: the AOC-MAP is -99 in assay [1] (Table I, 0.03 mg/kg i.v., area over curve from MAP change averaged over all animals per dose); -289 in assay [1] (Table I, 0.10 mg/kg i.v., area over curve from MAP change averaged over all animals per dose); -1263 in assay [1] (setting [5]); -3272 in assay [1] (setting [6]); -96 (±16) in assay [1] (Table II, 0.03 mg/kg i.v., average of area per animal (± standard deviation)); -283 (±24) in assay [1] (Table II, 0.10 mg/kg i.v., average of area per animal (± standard deviation)). For the same molecule, the AOC-MAP in assay [1] (setting [7]) is -1036 (±145); in assay [1] (setting [8]) it was -3272 (±350); in assay [1] (Table III, 0.03 mg/kg i.v., average of area per animal), -96 (±16); in assay [1] (Table III, 0.10 mg/kg i.v., average of area per animal), -269 (±18); in assay [1] (setting [3]), -826 (±128); in assay [1] (setting [4]), -3272 (±350). Further, the “hypotensive effect of captopril injection during H77 infusion” value in assay [2] is listed as “small additional hypotensive effect”.

“[alpha-R[alpha-R*, beta-S*(S*,S*)]-alpha-hydroxy-beta-[[2-[[2 -(4-morpholin-1-carboxamido)-1-oxo-3 -phenylpropyllaminol-3 -methylthio-l-oxo-propyl]amino]-cyclohexanebutanoic acid, isopropyl ester [RI]”: the AOC-MAP in assay [1] (setting [5]) is recorded as -256; in assay [1] (setting [6]) it was -496; in assay [1] (Table I, 3.0 mg/kg i.v., area over curve from MAP change averaged over all animals per dose) it was -1829; in assay [1] (setting [7]), -310 (±47); in assay [1] (setting [8]), -568 (±158); in assay [1] (Table II, 3.0 mg/kg i.v., average of area per animal (± standard deviation)) it was -1990 (±408).
